“Also recorded” adds a separate entry of the source. Read-outs that look alike come from different tables or passages of the source.
What was measured:
Format in all cases: cell-based, Trypanosoma cruzi
[1] = test system: T. cruzi-infected skeletal myoblasts (intracellular amastigotes); assay: Hit cross-validation in T. cruzi-infected mammalian cells (image-based assay); details: for Intracellular amastigotes in DAPI images after 72 h treatment: Compound 1 at 0.123 µM and 10 µM, Compound 13 at 10 µM; for EC50: Trypanosoma cruzi, Myoblast
[2] = test system: T. cruzi trypomastigote strain CAI/72 in C2C12 myoblasts; assay: Trypanocidal assay; details: 14 days treatment, then one week compound-free
Procedure: Compounds cross-validated with low EC50 against T. cruzi infected cells were further evaluated to determine the “cidal” concentration at which host cells are effectively cured, using the protocol adapted from Engel et al 1998 [30]. To allow long term treatment and avoid culture overgrowth, C2C12 myoblasts were seeded at low density in 96 well plates (10^3 cells/well) and cultured with DMEM H-21 medium supplemented with low FBS concentration (1%), 25 mM HEPES, 2 mM L-glutamine, 100 U/ml penicillin and 100 µg/ml streptomycin. The cells were infected with T. cruzi trypomastigote strain CAI/72 (5 parasites/cell) for 24 h and treated with 0, 0.04, 0.12, 0.37, 1.10, 3.30 or 10 µM test compounds in 100 µl of medium for 14 days. During the course of treatment, medium supplemented with test compounds was replaced every 72 h. After 14 days, drug pressure was withdrawn and incubation continued in the compound-free medium for another week, during which cultures were monitored for reappearance of T. cruzi trypomastigotes in the supernatant.

[3] = test system: sterol biosynthesis in T. cruzi amastigotes; assay: Lipid analysis of T. cruzi amastigotes (GC-MS of membrane sterols); details: amastigotes in C2C12 myoblasts, 24 h drug treatment, concentrations 5x below cidal; posaconazole 100 nM
Procedure: To grow intracellular amastigotes for lipid analysis, C2C12 mouse skeletal myoblasts (4×10^6 cells) cultured in 150 cm^2 flasks as described above were infected with 80×10^6 trypomastigotes for 24 h. The cultures were treated with test compounds 72 h post-infection at concentrations 5× below cidal to avoid completely killing the parasites. Posaconazole at 100 nM was used as a positive control. […] Cells were harvested 96 h post-infection and after 24 h of drug treatment. Cell detachment was initiated by brief treatment with 10 ml of 0.25% trypsin in PBS, followed promptly by replacement with 10 ml of fresh media containing FBS. Harvested cells were washed 3× with 25 ml of PBS to remove FBS and released trypomastigotes. The suspension of infected cells was then transferred to a glass tube and centrifuged at 2000 rpm for 5 min. After washing with PBS, 2 ml of chloroform-methanol solution (2∶1 ratio) was added to re-suspend the cell pellet. Organic solvents were then evaporated under N2 flow, allowing the pellet to dry.
For total lipid extraction, the dry cell pellet was treated with 2 ml chloroform for 24 h. Polar molecules were removed by washing the organic phase 3× with 3 ml water. The organic phase containing the sterols was subsequently dried on an evaporator under N2 flow. The lipids were re-suspended in 2 ml of chloroform-methanol (9∶1 ratio), washed again 3× with 3 ml water, dried under N2 flow and re-suspended in acetonitrile. After an additional wash 3× with 3 ml water, the acetonitrile was dried under an N2 stream. Extracted dry sterols were re-dissolved in hexane and derivatized with N,N-bis(trimethylsilyl)-2,2,2-trifluoroacetamide (BSTFA) (Pierce) by incubating at 37°C for at least 2 hours. Sterols as their trimethylsilyl (TMS) derivatives were analyzed by gas chromatography and mass spectrometry (GC-MS). GC-MS analysis and lipid identification were performed as described previously.

| Structure (SMILES) | Intracellular amastigotes in DAPI images after 72 h treatment [1] | EC50 ([1]; 72 h, T. cruzi-infected myoblasts, 72 h treatment, read-out: EC50 in image-based HTS cross-validation assay) [µM] | EC50 ([1]; in Mus musculus, T. cruzi amastigotes cultured in mouse myoblasts, averaged from two independent assays, read-out: EC50 in low throughput validation (repurchased hit)) [µM] | Trypanocidal concentration [2] [nM] | Effect on membrane sterol composition by GC-MS [3] | EC50 ([1]; 72 h, T. cruzi-infected myoblasts, 72 h treatment, repurchased compound, read-out: EC50 averaged from two independent cross-validation assays for individually repurchased hits) [µM] | EC50 ([1]; 72 h, T. cruzi-infected myoblasts, 72 h treatment, read-out: EC50 against T. cruzi parasites in HTS assay used to rank order the hits) [µM] |
| --- | --- | --- | --- | --- | --- | --- | --- |
| Brc1ccccc1OCCCCCCn1ccnc1 [Compound 1] | elimination of intracellular amastigotes | 0.07 | 0.017 | 40 | lanosterol (f) and eburicol (h) dominated the GC-MS traces; also recorded: fecosterol (e) was completely inhibited; also recorded: suppressed sterol biosynthesis in T. cruzi amastigotes more efficiently than posaconazole |  |  |
| O=C(c1ccc(Cl)cc1)C(Oc1ccc(Cl)cc1)n1cncn1 (stereo not shown) [Compound 13, 2-(4-chlorophenoxy)-1-(4-chlorophenyl)-2-(1H-1,2,4-triazol-1-yl)ethanone] | elimination of intracellular amastigotes |  |  | 2500 | present in amounts comparable to those of 14-demethylated products; also recorded: increase in lanosterol and eburicol precursors and a concomitant decline in episterol, fecosterol and other 14-demethylated intermediates | 1.3 | 1.31 |

From article PMC3409115, “Diverse Inhibitor Chemotypes Targeting Trypanosoma cruzi CYP51” (PLoS Neglected Tropical Diseases, 2012)
